Data set [1] has as its system KF3CT system [keratinocytes and HDFn+(IL-1β, TNFα, IFNγ and TGFβ)]. Kind of data set: BioMAP KF3CT system. It is filed as cell-based, Human. An excerpt:
(§1) In this study LMW-DS was characterized by profiling in the BioMAP® Diversity PLUS panel. The BioMAP® panel consists of human primary cell-based systems designed to model different aspects of the human body in an in vitro format. The 12 systems in the BioMAP® Diversity PLUS panel (Table 32) allow test agent characterization in an unbiased way across a broad set of systems modeling various human disease states. The BioMA®P systems are constructed with one or more primary cell types from healthy human donors, with stimuli, such as cytokines or growth factors, added to capture relevant signaling networks that naturally occur in human tissue or pathological conditions. […]
(§2) Systems are derived from either single cell types or co-culture systems. […] Test agents prepared in either DMSO (small molecules; final concentration 0.1%) or PBS (biologics) are added at the indicated concentrations 1-hr before stimulation, and remain in culture for 24-hrs or as otherwise indicated (48-hrs, MyoF system; 72-hrs, BT system (soluble readouts); 168-hrs, BT system (secreted IgG)). […] Soluble factors from supernatants are quantified using either HTRF® detection, bead-based multiplex immunoassay or capture ELISA. Overt adverse effects of test agents on cell proliferation and viability (cytotoxicity) are detected by sulforhodamine B (SRB) staining, for adherent cells, and alamarBlue® reduction for cells in suspension. […]

For data set [2], the system named is 3C system [HUVEC+(IL-1β, TNFα and IFNγ)]. Kind of data set: BioMAP 3C system. It counts as cell-based, Human.
Text: as §1, §2

Data set [3] concerns human primary cell-based systems. As to the kind of experiment: BioMAP Diversity PLUS panel (whole panel, profile and similarity analysis). An excerpt:
In this study LMW-DS was characterized by profiling in the BioMAP® Diversity PLUS panel. The BioMAP® panel consists of human primary cell-based systems designed to model different aspects of the human body in an in vitro format. The 12 systems in the BioMAP® Diversity PLUS panel (Table 32) allow test agent characterization in an unbiased way across a broad set of systems modeling various human disease states. The BioMA®P systems are constructed with one or more primary cell types from healthy human donors, with stimuli, such as cytokines or growth factors, added to capture relevant signaling networks that naturally occur in human tissue or pathological conditions. Vascular biology is modeled in both a Th1 (3C system) and a Th2 (4H system) inflammatory environment, as well as in a Th1 inflammatory state specific to arterial smooth muscle cells (CASM3C system). Additional systems recapitulate aspects of the systemic immune response including monocyte-driven Th1 inflammation (LPS system) or T cell stimulation (SAg system), chronic Th1 inflammation driven by macrophage activation (IMphg system) and the T cell-dependent activation of B cells that occurs in germinal centers (BT system). The BE3C system (Th1) and the BF4T system (Th2) represent airway inflammation of the lung, while the MyoF system models myofibroblast-lung tissue remodeling. Lastly, skin biology is addressed in the KF3CT system modeling Th1 cutaneous inflammation and the HDF3CGF system modeling wound healing.
Each test agent generates a signature BioMAP® profile that is created from the changes in protein biomarker readouts within individual system environments. Biomarker readouts (7-17 per system) are selected for therapeutic and biological relevance, are predictive for disease outcomes or specific drug effects and are validated using agents with known mechanism of action (MoA). Each readout is measured quantitatively by immune-based methods that detect protein, e.g., ELISA, or functional assays that measure proliferation and viability. BioMAP® readouts are diverse and include cell surface receptors, cytokines, chemokines, matrix molecules and enzymes. In total, the BioMAP® Diversity PLUS panel contains 148 biomarker readouts that capture biological changes that occur within the physiological context of the particular BioMAP® system.
Four concentrations of LMW-DS (150 nM, 440 nM, 1.3 μM, 4 μM) were investigated in the BioMAP® Diversity PLUS panel by Eurofins.
Human primary cells in BioMAP systems are used at early passage (passage 4 or earlier) to minimize adaptation to cell culture conditions and preserve physiological signaling responses. All cells are from a pool of multiple donors (n=2-6), commercially purchased and handled according to the recommendations of the manufacturers. Human blood derived CD14^+ monocytes are differentiated into macrophages in vitro before being added to the /Mphg system. Abbreviations are used as follows: Human umbilical vein endothelial cells (HUVEC), Peripheral blood mononuclear cells (PBMC), Human neonatal dermal fibroblasts (HDFn), B cell receptor (BCR), T cell receptor (TCR) and Toll-like receptor (TLR).
Cell types and stimuli used in each system are as follows: 3C system [HUVEC+(IL-1β, TNFα and IFNγ)], 4H system [HUVEC+(IL-4 and histamine)], LPS system [PBMC and HUVEC+LPS (TLR4 ligand)], SAg system [PBMC and HUVEC+TCR ligands], BT system [CD19^+ B cells and PBMC+(a-IgM and TCR ligands)], BF4T system [bronchial epithelial cells and HDFn+(TNFα and IL-4)], BE3C system [bronchial epithelial cells+(IL-1β, TNFα and IFNγ)], CASM3C system [coronary artery smooth muscle cells+(IL-1β, TNFα and IFNγ)], HDF3CGF system [HDFn+(IL-1β, TNFα, IFNγ, EGF, bFGF and PDGF-BB)], KF3CT system [keratinocytes and HDFn+(IL-1β, TNFα, IFNγ and TGFβ)], MyoF system [differentiated lung myofibroblasts+(TNFα and TGFβ)] and /Mphg system [HUVEC and M1 macrophages+Zymosan (TLR2 ligand)].
Systems are derived from either single cell types or co-culture systems. […]

In data set [4] the test system is 4H system [HUVEC+(IL-4 and histamine)]. As to the kind of experiment: BioMAP 4H system. It is filed as cell-based, Human.
Text: as §1, §2

Entries after “also recorded” stand apart in the source; their conditions may differ.

Take “low molecular weight dextran sulfate [LMW-DS]”: in data set [1], the Decreased biomarker activity entry is “MCP-1” and the Increased biomarker activity entry is listed as “IL-8”. The Increased biomarker activity entry in data set [2] was “IL-8”. Further, in data set [3] (150 nM to 4 μM), the CD69 result was “increased”, the EGFR entry is listed as “increased”, the “Eotaxin 3 (Eot3)” value was “increased” and the I-TAC result was “decreased”. Moreover, in data set [3] (150 nM to 4 μM), the IL-8 entry is listed as “increased”, the IP-10 result was “decreased”, the M-CSF entry is on record as “decreased” and the MCP-1 entry is recorded as “decreased”. For the same substance, in data set [3] (150 nM to 4 μM), the MIG result is reported as “decreased”, the MMP-1 entry is on record as “increased”, the PAI-1 result was “increased” and the VCAM-1 entry was “decreased”. For the same substance, in data set [3] (150 nM to 4 μM), the “cytotoxicity for human primary cells” value was “not cytotoxic; also recorded: noncytotoxic”, the sTNFα result is listed as “decreased”, the “secreted immunoglobulin G (sIgG)” value is given as “decreased” and the “thrombomodulin (TM)” value was “increased”. Moreover, the uPAR result in data set [3] (150 nM to 4 μM) was “increased”. Moreover, the “annotated readouts in BioMAP profile” value in data set [3] (150 nM, 440 nM, 1.3 μM, 4 μM) amounted to 25. For the same substance, the “proliferation of human primary endothelial cells” value in data set [3] (top concentration only (4 μM)) is “modestly and selectively antiproliferative”. Besides, in data set [4], the Increased biomarker activity entry is listed as “uPAR”.

Values taken from patent US11534457B2, “Use of dextran sulfate” (priority 2017, dated 2022).
